According to publication PMC10897476, “Pyridylpiperazine efflux pump inhibitor boosts in vivo antibiotic efficacy against K. pneumoniae” (EMBO Molecular Medicine, 2023):
Marks after values point to notes of the source that are not given here.

Experiments:
Assay type in all cases: cell-based, Klebsiella pneumoniae
[1] = tested on: K. pneumoniae AcrB^V448E RamR^mut; test: MIC of antibiotics with and without EPI (REMA), double mutant; conditions: for Minimum Inhibitory Concentration: K. pneumoniae AcrB^V448E RamR^mut; for MIC: Klebsiella pneumoniae, read-out: Minimum Inhibitory Concentration
Description: (§1) MIC experiments were carried out according to the CLSI guidelines (CLSI [2023]). Overnight cultures were diluted to an OD600 = 0.001 in CAMHB followed by addition of efflux pump inhibitors (EPIs) at a final concentration of 100 µM. […] Plates were incubated at 37 °C for up to 20 h. Bacterial viability was evaluated using the resazurin microtitre assay (REMA) and measured by fluorescence using a Tecan Spaert multimode plate reader (Ex: 530 nm Em: 590 nm). MICs were defined as the concentration that prevented 90% of resazurin turnover compared to the non-treated bacteria.

[2] = tested on: K. pneumoniae RamR^mut (K124*stop); test: MIC of antibiotics with and without EPI (REMA), RamR mutant; conditions: for Minimum Inhibitory Concentration: K. pneumoniae RamR^mut; for MIC: Klebsiella pneumoniae, read-out: Minimum Inhibitory Concentration
Description: as §1
(§2) Mutations in acrB or ramR identified in the BDM88855.HCl (1’) resistant mutant (a.k.a., KPJC11) were introduced individually into K. pneumoniae ATCC 43816 chromosome by allelic exchange (Cianfanelli et al, [2020]). Briefly, 1-kb PCR products centred around each point mutation were generated by amplifying acrB with primers RH1251 ([…][…]) and RH1252 ([…][…]) or ramR with primers RH1249 ([…][…]) and RH1250 ([…][…]) from KPJC11 genomic DNA. PCR fragments were cloned into pFOK (Cianfanelli et al, [2020]) using NEB-building kit ([New England Biolabs]) to generate pEP1533 and pEP1534. Correct plasmids were confirmed by sequencing and introduced into K. pneumoniae ATCC43816 WT via conjugation with the MFDpir+ E. coli donor strain. Exconjugants were selected on kanamycin (50 mg/L) plates at 37 °C and plasmid chromosomal integration was checked by PCR. […] The next day, cultures were diluted and plated onto LB agar. Isolated colonies were then patched onto LB plates with or without kanamycin (50 mg/L) and Km^S candidates were evaluated for correct allelic exchange via acrB or ramR sequencing and then WGS to confirm no additional mutations were introduced.

[3] = tested on: K. pneumoniae ATCC 43816 (WT); test: MIC of antibiotics with and without EPI (REMA), WT strain; conditions: for Minimum Inhibitory Concentration / MIC: K. pneumoniae WT; for MIC: Klebsiella pneumoniae, ATCC43816, No EPI, read-out: Minimum Inhibitory Concentration
Description: Overnight cultures were diluted to an OD600 = 0.001 in CAMHB followed by addition of efflux pump inhibitors (EPIs) at a final concentration of 100 µM. […] Plates were incubated at 37 °C for up to 20 h. […] MICs were defined as the concentration that prevented 90% of resazurin turnover compared to the non-treated bacteria.

K. pneumoniae AcrB^V448E = test: MIC of antibiotics with and without EPI (REMA), AcrB V448E mutant; conditions: for Minimum Inhibitory Concentration: K. pneumoniae AcrB^V448E; for MIC: Klebsiella pneumoniae, read-out: Minimum Inhibitory Concentration
Description: as §1, §2

SMILES | Minimum Inhibitory Concentration ([1]; + 100 µM 1') [mg/L] | Minimum Inhibitory Concentration ([1]; + 100 µM 5) [mg/L] | Minimum Inhibitory Concentration ([1]; + 100 µM PAβN) | MIC [1] [µg/mL] | Minimum Inhibitory Concentration ([2]; + 100 µM 1') | Minimum Inhibitory Concentration ([2]; + 100 µM 5) | Minimum Inhibitory Concentration ([2]; + 100 µM PAβN) | MIC [2] [µg/mL] | Minimum Inhibitory Concentration ([3]; + 100 µM 1') | Minimum Inhibitory Concentration ([3]; + 100 µM 5) | Minimum Inhibitory Concentration ([3]; + 100 µM PAβN) | MIC [3] [µg/mL] | boosting of antibiotic activity in combination with EPIs ([3]; Table 2) | Minimum Inhibitory Concentration (K. pneumoniae AcrB^V448E; + 100 µM 1') | Minimum Inhibitory Concentration (K. pneumoniae AcrB^V448E; + 100 µM 5) | Minimum Inhibitory Concentration (K. pneumoniae AcrB^V448E; + 100 µM PAβN) | MIC (K. pneumoniae AcrB^V448E) [µg/mL] | Minimum Inhibitory Concentration ([1]; No EPI) [mg/L]
CC[C@H]1OC(=O)[C@H](C)[C@@H](O[C@H]2C[C@@](C)(OC)[C@@H](O)[C@H](C)O2)[C@H](C)[C@@H](O[C@@H]2O[C@H](C)C[C@H](N(C)C)[C@H]2O)[C@](C)(O)C[C@@H](C)CN(C)[C@H](C)[C@@H](O)[C@]1(C)O [Azithromycin] | 37 | 21 | 0.7^# mg/L | 21 | 11^# mg/L | 3.3^# mg/L | 0.7^# mg/L | 37 | 2.7^# mg/L | 2.0^# mg/L | 0.5^# mg/L | 16 | at least 8 fold | 6.7^# mg/L | 11^# mg/L | 0.5^# mg/L | 21 | 
C[C@H]1[C@H](NC(=O)/C(=N\OC(C)(C)C(=O)O)c2csc(N)n2)C(=O)N1S(=O)(=O)O [Aztreonam] | 0.53 | 0.75 | 0.53 mg/L | 0.53 | 0.32 mg/L | 0.27 mg/L | 0.53 mg/L | 0.43 | 0.11 mg/L | 0.11 mg/L | 0.16 mg/L | 0.07 |  | 0.16 mg/L | 0.21 mg/L | 0.32 mg/L | 0.13 | 
CO/N=C(\C(=O)N[C@@H]1C(=O)N2C(C(=O)[O-])=C(C[N+]3(C)CCCC3)CS[C@H]12)c1csc(N)n1 [Cefepime] | 0.85 | 0.96 | 0.85 mg/L | 0.75 | 0.64 mg/L | 0.11^# mg/L | 0.64 mg/L | 0.53 | 0.05 mg/L | 0.05 mg/L | 0.21 mg/L | 0.09 |  | 0.05 mg/L | 0.04 mg/L | 0.64 mg/L | 0.06 | 
CC(C)(O/N=C(\C(=O)N[C@@H]1C(=O)N2C(C(=O)[O-])=C(C[n+]3ccccc3)CS[C@H]12)c1csc(N)n1)C(=O)O [Ceftazidime] | 1.28 | 1.28 | 1.28 mg/L |  | 1.1 mg/L | 0.64^# mg/L | 0.64^# mg/L | 1.3 | 0.32 mg/L | 0.53 mg/L | 0.32 mg/L | 0.43 |  | 0.37^# mg/L | 0.32^# mg/L | 0.53 mg/L | 0.85 | 1.28
Cc1onc(-c2ccccc2)c1C(=O)N[C@@H]1C(=O)N2[C@@H]1SC(C)(C)[C@@H]2C(=O)O [Oxacillin] |  |  |  |  |  |  |  |  | 32^# mg/L | 43^# mg/L |  |  |  |  |  |  |  | 
